Values of other authors, collected in paper PMC3172902 (British Journal of Cancer, 2011).

Molecular target: CDK2 (Homo sapiens, UniProt P24941)
Assay: cell-free CDK2 inhibition (value printed without citation; method not described)
Format: biochemical

NU6252
IC50: 19 nM
